Assay results as given in ChEMBL document CHEMBL1201862, “PubChem BioAssay data set” (2004).
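Following 48 hours of exposure in 96-well plates, responses at five concentrations were used to interpolate endpoints linearly. GI50 is the concentration that inhibits growth by half.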 The source made the active and inactive calls. No stated cut-off is given here; in the data, active = GI50 up to about 1.1 µM and inactive = higher.

Tests used:
Assay in all cases: DTP human tumour cell line panel, 48 h
[1] = test system: CCRF-CEM
[2] = test system: COLO 205
[3] = test system: DU-145
[4] = test system: HCC 2998
[5] = test system: HCT-116
[6] = test system: HOP-92
[7] = test system: HT-29
[8] = test system: Hs-578T
[9] = test system: M14
[10] = test system: MCF7
[11] = test system: MDA-MB-435
[12] = test system: MDA-N
[13] = test system: Malme-3M
[14] = test system: NCI/ADR-RES
[15] = test system: SF-539
[16] = test system: SK-OV-3
[17] = test system: SNB-19
[18] = test system: SW-620
[19] = test system: UO-31
[20] = test system: UACC-62

| Compound | GI50 [1] | GI50 [2] | GI50 [3] | GI50 [4] | GI50 [5] | GI50 [6] | GI50 [7] | GI50 [8] | GI50 [9] | GI50 [10] | GI50 [11] | GI50 [12] | GI50 [13] | GI50 [14] | GI50 [15] | GI50 [16] | GI50 [17] | GI50 [18] | GI50 [19] | GI50 [20] |
| --- | --- | --- | --- | --- | --- | --- | --- | --- | --- | --- | --- | --- | --- | --- | --- | --- | --- | --- | --- | --- |
| COC(=O)c1c(O)ccc2c1c1c(n2-c2ccc(OC)cc2)C(=O)c2ccccc2C1=O | 15.2 µM (inactive) | 1.94 µM (inactive) | 21.5 µM (inactive) | 3.62 µM (inactive) | 16.9 µM (inactive) | 14.8 µM (inactive) | 4.14 µM (inactive) | 16.9 µM (inactive) | 63.2 µM (inactive) | 16.6 µM (inactive) | 66.8 µM (inactive) | 57.1 µM (inactive) | 24.4 µM (inactive) | 14.7 µM (inactive) | 15.3 µM (inactive) | 19.3 µM (inactive) | 20.6 µM (inactive) | 42.3 µM (inactive) | 11.9 µM (inactive) |  |
| C=C1C(=O)C=C[C@]2(C)CC[C@H]3C(=C)C(=O)O[C@@H]3[C@@H]12 | 0.579 µM (active) | 0.964 µM (active) | 2.09 µM (inactive) |  | 0.195 µM (active) | 2.87 µM (inactive) | 1.56 µM (inactive) | 4.1 µM (inactive) | 1.76 µM (inactive) | 0.738 µM (active) | 1.57 µM (inactive) | 1.88 µM (inactive) | 1.97 µM (inactive) | 2.34 µM (inactive) | 0.562 µM (active) | 8.73 µM (inactive) | 14.6 µM (inactive) | 0.813 µM (active) | 1.43 µM (inactive) | 1.96 µM (inactive) |
| COc1cc(NS(C)(=O)=O)ccc1N1Cc2c[nH]c3ccc4nc(C)cc1c4c23 | 52.1 µM (inactive) | > 100 µM (inactive) | > 100 µM (inactive) | > 100 µM (inactive) | 62.8 µM (inactive) | 24.9 µM (inactive) | > 100 µM (inactive) | 40.6 µM (inactive) | > 100 µM (inactive) | 52.6 µM (inactive) | 17.5 µM (inactive) | 19.6 µM (inactive) |  | > 100 µM (inactive) |  | 41.6 µM (inactive) | 18.7 µM (inactive) | > 100 µM (inactive) | > 100 µM (inactive) | 72.3 µM (inactive) |
| CC[C@@H]1CC[C@@H]2[C@H](CC[C@]3(C)[C@@H](O[N+](=O)[O-])CC[C@@H]23)[C@H]1C(C)=O | 32.4 µM (inactive) | 7.85 µM (inactive) | 45.7 µM (inactive) | 28 µM (inactive) | 23.7 µM (inactive) | 21.6 µM (inactive) | 13.1 µM (inactive) | 44.7 µM (inactive) | 30.8 µM (inactive) | 23.8 µM (inactive) | 32.8 µM (inactive) | 28.9 µM (inactive) | 25.4 µM (inactive) | 21.8 µM (inactive) | 38.3 µM (inactive) |  | 56.5 µM (inactive) | 40.4 µM (inactive) | 24.6 µM (inactive) |  |
| CN(C)c1ccc(/C=N\NC(=O)Nc2cccc3ccccc23)cc1 | 4.26 µM (inactive) | 4.99 µM (inactive) | 6.71 µM (inactive) | 9.51 µM (inactive) | 5.52 µM (inactive) | 20.3 µM (inactive) | 2.62 µM (inactive) | 4.17 µM (inactive) | 5.37 µM (inactive) | 3.86 µM (inactive) | 0.927 µM (active) | 1.53 µM (inactive) | 4.03 µM (inactive) | 7.41 µM (inactive) | 4.4 µM (inactive) |  | 2.46 µM (inactive) | 6.11 µM (inactive) | 13.2 µM (inactive) |  |
| COc1ccc(OC)c(CNc2ccc(C(=O)O)cc2)c1 | > 100 µM (inactive) | > 100 µM (inactive) | > 100 µM (inactive) | > 100 µM (inactive) | > 100 µM (inactive) | > 100 µM (inactive) | > 100 µM (inactive) | > 100 µM (inactive) | > 100 µM (inactive) | > 100 µM (inactive) | > 100 µM (inactive) | > 100 µM (inactive) | > 100 µM (inactive) | > 100 µM (inactive) | > 100 µM (inactive) | > 100 µM (inactive) | > 100 µM (inactive) | > 100 µM (inactive) | > 100 µM (inactive) | > 100 µM (inactive) |
| CC1=C2C(=O)c3ccccc3C(=O)[C@H]2[C@H]2CCO[C@H]2O1 | 25.4 µM (inactive) | 42.2 µM (inactive) | 22.3 µM (inactive) | 19.4 µM (inactive) | 23.8 µM (inactive) | 20 µM (inactive) | 31.2 µM (inactive) | 41.7 µM (inactive) | 20.6 µM (inactive) | 0.3 µM (active) | 20.7 µM (inactive) | 19.2 µM (inactive) | 19.1 µM (inactive) | 27 µM (inactive) | 22.1 µM (inactive) | 50.4 µM (inactive) | 37 µM (inactive) | 21.1 µM (inactive) | 18.1 µM (inactive) | 20.4 µM (inactive) |
| CCOC(=O)O/N=C1/C(=C2/C(=O)Nc3ccccc32)Nc2ccccc21 | 2.87 µM (inactive) | 15.5 µM (inactive) | 2.87 µM (inactive) | 2.73 µM (inactive) | 3.03 µM (inactive) | 22.3 µM (inactive) | 10.1 µM (inactive) | 2.9 µM (inactive) | 10.3 µM (inactive) | 3.69 µM (inactive) | 4.48 µM (inactive) | 3.91 µM (inactive) | 10 µM (inactive) | 4.83 µM (inactive) |  | 1.59 µM (inactive) | 18.7 µM (inactive) | 5.21 µM (inactive) | 3.65 µM (inactive) | 8.32 µM (inactive) |
| COC(=O)c1cncc2c1CC1C3(C(=O)OC)C=NC(C4C(CO)=CCC43)C21C (configuration not stated) | > 100 µM (inactive) | > 100 µM (inactive) | > 100 µM (inactive) | > 100 µM (inactive) | > 100 µM (inactive) | > 100 µM (inactive) | > 100 µM (inactive) | > 100 µM (inactive) | > 100 µM (inactive) | > 100 µM (inactive) | > 100 µM (inactive) | > 100 µM (inactive) | > 100 µM (inactive) | > 100 µM (inactive) | > 100 µM (inactive) |  | > 100 µM (inactive) | > 100 µM (inactive) | > 100 µM (inactive) |  |
| C[N+](C)(C)C1=NNC2=Nc3ccccc3SC2=C1 | 11.7 µM (inactive) | 15 µM (inactive) | 27.6 µM (inactive) | 24.4 µM (inactive) | 13.9 µM (inactive) | 12.1 µM (inactive) | 13.5 µM (inactive) | 30 µM (inactive) | 15.7 µM (inactive) | 18.6 µM (inactive) | 22.2 µM (inactive) | 17.8 µM (inactive) | 19.8 µM (inactive) | 16.1 µM (inactive) |  | 23.6 µM (inactive) | 26.5 µM (inactive) | 24.4 µM (inactive) | 15 µM (inactive) | 17 µM (inactive) |
| Cc1csc2[n+]1C(=O)/C(=C\c1ccc([N+](=O)[O-])cc1)S2 | 43.1 µM (inactive) | 19.7 µM (inactive) | 39 µM (inactive) | 21.6 µM (inactive) | 17.8 µM (inactive) | 19.4 µM (inactive) | 23.9 µM (inactive) | 25.6 µM (inactive) | 34 µM (inactive) | 32.7 µM (inactive) | 24.9 µM (inactive) | 27.8 µM (inactive) |  | 25.4 µM (inactive) | 36.1 µM (inactive) | 31.5 µM (inactive) | 25.4 µM (inactive) | 40.8 µM (inactive) | 15.3 µM (inactive) | 19.2 µM (inactive) |
| COc1cc2oc(=O)cc(C)c2cc1O | > 100 µM (inactive) | > 100 µM (inactive) | > 100 µM (inactive) | 3 µM (inactive) | > 100 µM (inactive) | 46.3 µM (inactive) | > 100 µM (inactive) | > 100 µM (inactive) | > 100 µM (inactive) | > 100 µM (inactive) | > 100 µM (inactive) | > 100 µM (inactive) | > 100 µM (inactive) | > 100 µM (inactive) | > 100 µM (inactive) |  | > 100 µM (inactive) | > 100 µM (inactive) | 54.5 µM (inactive) |  |
| N#Cc1c(-c2ccccc2)cc(Nc2ccc(F)cc2)n2c1nc1ccccc12 |  | 1.58 µM (inactive) | 2.94 µM (inactive) | 3.75 µM (inactive) | 1.83 µM (inactive) | 1.01 µM (active) | 2.26 µM (inactive) | < 0.01 µM (active) | 3.35 µM (inactive) | 2.18 µM (inactive) | 3.11 µM (inactive) | 2.28 µM (inactive) | 3.66 µM (inactive) | 2.26 µM (inactive) | 3.26 µM (inactive) | 2.43 µM (inactive) | 3.14 µM (inactive) | 4.08 µM (inactive) | 1.73 µM (inactive) | 1.84 µM (inactive) |
| COc1cc(/C=C/C(=O)N[C@@H]2C(=O)N3[C@@H]2SC(C)(C)[C@@H]3C(=O)O)cc(OC)c1OC | > 100 µM (inactive) | > 100 µM (inactive) | > 100 µM (inactive) | > 100 µM (inactive) | > 100 µM (inactive) | > 100 µM (inactive) | > 100 µM (inactive) | > 100 µM (inactive) | > 100 µM (inactive) | > 100 µM (inactive) | > 100 µM (inactive) | > 100 µM (inactive) |  | > 100 µM (inactive) | > 100 µM (inactive) | > 100 µM (inactive) | > 100 µM (inactive) | > 100 µM (inactive) | > 100 µM (inactive) | > 100 µM (inactive) |
| CON(C)C(=O)C(C)NC(=O)OCc1ccccc1 (configuration not stated) | > 100 µM (inactive) |  | > 100 µM (inactive) | > 100 µM (inactive) | > 100 µM (inactive) | > 100 µM (inactive) | > 100 µM (inactive) | > 100 µM (inactive) | > 100 µM (inactive) | > 100 µM (inactive) | > 100 µM (inactive) | > 100 µM (inactive) | > 100 µM (inactive) | > 100 µM (inactive) | > 100 µM (inactive) | > 100 µM (inactive) | > 100 µM (inactive) | > 100 µM (inactive) | > 100 µM (inactive) | > 100 µM (inactive) |
